In brackets after ≈: the same amount, converted by molar mass. Like-named read-outs stand apart in the source and are kept apart here. Starred links: 1 amine or outer side, 2 acyl side, 3 side chain; linkers in the order of their positions; H or OH if unused. Positions of bridges follow the written chain, without caps; N, C: chain ends. Non-standard residues stand in square brackets, D forms with d. Residues, ends and D or L forms follow the SMILES beside them. *: point of attachment. X3 = CCC(C)(C)C[C@@H](N)C(=O)N[C@@H](Cc1cccnc1)C(=O)N[C@H](C(N)=O)[C@H](O*)c1ccccc1; X2 = CC(C)(C)C[C@@H](N)C(=O)N[C@@H](Cc1cccnc1)C(=O)N[C@H](C(N)=O)[C@H](O*)c1ccccc1; Phe(3R-OH) = O=C([C@@H](N[*:1])[C@H](O[*:3])c1ccccc1)[*:2]; Asn(3S-OH) = NC(=O)[C@@H](O)[C@H](N)C(=O)O; Leu(3R-OH) = CC(C)[C@@H](O)[C@H](N)C(=O)O; dAla(TMS) = C[Si](C)(C)C[C@@H](N)C(=O)O; X1 = CC(C)[C@@H](O)[C@H](C)C(=O)*; 3Pal = N[C@@H](Cc1cccnc1)C(=O)O; aThr = C[C@H](O)[C@H](N)C(=O)O
Experiments:
[1] = test system: Staphylococcus aureus 133; type: cell-based
Experimental: (§1) Determination of the Minimum Inhibitory Concentration (MIC):
(§2) The MIC is determined in the liquid dilution test in accordance with the NCCLS guidelines. Overnight cultures of Staphylococcus aureus 133, Enterococcus faecalis 27159, E. faecium 4147 and Streptococcus pneumoniae G9a are incubated with the described test substances in a 1:2 dilution series. The MIC determination is carried out with a cell count of 10^5 microbes per ml in Isosensitest medium (Difco, Irvine/USA), with the exception of S. pneumoniae which is tested in BHI broth (Difco, Irvine/USA) with 10% bovine serum with a cell count of 10^6 microbes per ml. The cultures are incubated at 37° C. for 18-24 hours, S. pneumoniae in the presence of 10% CO2.
(§3) The MIC is defined as the lowest concentration of each substance at which visible bacterial growth no longer occurs. The MIC values are reported in μg/ml.

[2] = test system: Streptococcus pneumoniae G9a; type: cell-based
Experimental: as §1, §2, §3

E. faecium L4001 = type: cell-based, Enterococcus faecium
E. faecalis ICB 27159 = type: cell-based, Enterococcus faecalis
Experimental: as §1, §2, §3

[3] = Determination of the free fraction (fu) in plasma via Transil or ultrafiltration; type: in vitro ADME, rat
Experimental: Principle of the Determination of the Free Fraction via Transil:
The method described herein for determining the free fraction (fu) of a test substance is divided into 2 parts:
a) Determination of the Transil®/buffer partitioning ratio (MAbuffer) by incubating the test substance in a Transil® buffer (pH 7.4) dispersion and subsequently determining the concentration in the dispersion and in the buffer supernatant.
b) Determination of the Transil®/plasma partitioning ratio (MAplasma) by incubating the test substance in a Transil® plasma dispersion and subsequently determining the concentration in the dispersion and in the plasma.
The quotient of the two partitioning ratios gives fu.
Where substances are highly protein-bound, the plasma is usually diluted with isotonic phosphate buffer (pH 7.4) and then suspended with Transil®. Determination of fu′ (free fraction in diluted plasma) in this diluted protein solution takes place in analogy to the determination of fu. The free fraction in undiluted plasma is calculated from fu′ and the dilution factor.
Concerning this method, compare also: Schuhmacher, Joachim; Kohlsdorfer, Christian; Buehner, Klaus; Brandenburger, Tim; Kruk, Renate, “High-throughput determination of the free fraction of drugs strongly bound to plasma proteins.” Journal of Pharmaceutical Sciences 2004, 93, 816-830.
Determination of the Membrane Affinity of a Test Substance After Partitioning Between Transil® and Buffer (MAbuffer):
All incubations are carried out in suitable glass vessels, e.g. glass vials, ground-joint test tubes. The total volume is usually 0.5-5 ml, and the Transil® volume is 10-100 μl. If the membrane affinities are expected to be high, the Transil® dispersion can be diluted up to 20 times with phosphate buffer of pH 7.4, e.g. Dulbecco's PBS. Phosphate buffer of pH 7.4 is introduced into the incubation vessels, and the Transil® is pipetted in after thorough mixing. The test substance is pipetted in at a concentration of, for example, 200 ng/ml, n=6. The proportion of organic solvents should be ≦2%. The mixtures are incubated at room temperature i.e. on a mini-shaker at an angle of about 45°, at about 400 rpm for 30 min. The 100% value is determined by taking at least one aliquot of, for example, 100 μl, and the remaining mixture is centrifuged at about 1800 g for about 10 min. […]
The plasma of the species to be investigated is filtered through a semipermeable membrane. The concentration of substance in the filtrate is measured, and the free fraction fU is calculated therefrom. […] The concentration of substance in the ultrafiltrate (Cu, unbound substance concentration) and in the plasma before centrifugation (C; total substance concentration) is measured. The free fraction is calculated by the formula fu (%)=Cu/C*100.

[4] = Isosensitest medium, 10^5 microbes per ml, 37° C., 18-24 hours
[5] = BHI broth with 10% bovine serum, 10^6 microbes per ml, 37° C., 18-24 hours, 10% CO2
[6] = free fraction in rat plasma, read-out: fu (rat)

SMILES | MIC S. aureus 133 [1, 4] [µg/mL] | MIC S. pneumoniae G9a [2, 5] [µg/mL] | MIC E. faecium L4001 (E. faecium L4001; [4]) [µg/mL] | MIC E. faecalis ICB 27159 (E. faecalis ICB 27159; [4]) [µg/mL] | fraction unbound at 30 min [3, 6] | MIC S. aureus 133 [1]; 133 [µg/mL] | MIC S. pneumoniae G9a ([2]; G9a) [µg/mL] | MIC E. faecalis ICB 27159 (E. faecalis ICB 27159; ICB 27159) [µg/mL] | fraction unbound at 30 min ([3]; rat, plasma) | MIC E. faecium L4001 (E. faecium L4001; L4001) [µg/mL]
CC[C@H](C)[C@@H]1NC(=O)[C@@H](CCCNC(=N)N)NC(=O)[C@H](CC(C)C)NC(=O)[C@H]([C@H](O)C(C)C)NC(=O)[C@@H](NC(=O)[C@H](CC(C)C)NC(=O)[C@H](N)CC(C)C)[C@@H](c2ccccc2)OC(=O)[C@H](CO)NC(=O)[C@H]([C@H](O)C(N)=O)NC(=O)CNC(=O)[C@H]([C@H](C)O)NC1=O [Example 1A, D-Leucyl-N^1-4-{(3S,6S,12S,15S,18R,21S,24S,27S,28R)-6-[(1S)-2-amino-1-hydroxy-2-oxoethyl]-18-(3-{[amino(imino)methyl]amino}propyl)-12-[(1S)-1-hydroxyethyl]-3-(hydroxymethyl)-24-[(1R)-1-hydroxy-2-methylpropyl]-21-isobutyl-15-[(1S)-1-methylpropyl]-2,5,8,11,14,17,20,23,26-nonaoxo-28-phenyl-1-oxa-4,7,10,13,16,19,22,25-octaazacyclooctacosan-27-yl}-L-leucinamide bistrifluoroacetate (lysobactin), reference compound] (H-[dL]L[Phe(3R-OH)][Leu(3R-OH)]L[dR]I[aThr]G[Asn(3S-OH)]S; ester 3-C) | 0.5 (≈ 0.392 µM) | 0.063 (≈ 0.0494 µM) | 0.5 (≈ 0.392 µM) | 0.5 (≈ 0.392 µM) | 0.0067 | – | – | – | – | –
CC[C@H](C)[C@@H]1NC(=O)[C@@H](CCCNC(=N)N)NC(=O)[C@H](CC(C)C)NC(=O)[C@H]([C@H](O)C(C)C)NC(=O)[C@@H](NC(=O)[C@H](Cc2cccnc2)NC(=O)[C@H](N)C[Si](C)(C)C)[C@@H](c2ccccc2)OC(=O)[C@H](CO)NC(=O)[C@H]([C@H](O)C(N)=O)NC(=O)CNC(=O)[C@H]([C@H](C)O)NC1=O [Example 2, 3-(Trimethylsilyl)-D-alanyl-3-(pyridin-3-yl)-L-alanyl-de(1-D-leucyl-2-L-leucyl)-lysobactin tristrifluoroacetate] (H-[dAla(TMS)][3Pal][Phe(3R-OH)][Leu(3R-OH)]L[dR]I[aThr]G[Asn(3S-OH)]S; ester 3-C) | 0.125 (≈ 0.0932 µM) | 0.125 (≈ 0.0932 µM) | 1 (≈ 0.745 µM) | 0.5 (≈ 0.373 µM) | 0.123 | – | – | – | – | –
CC[C@H](C)[C@H](NC(=O)[C@@H](CCCNC(=N)N)NC(=O)[C@H](CC(C)C)NC(=O)[C@@H](C)[C@H](O)C(C)C)C(=O)N[C@H](C(=O)NCC(=O)N[C@H](C(=O)N[C@@H](CO)C(=O)O[C@H](c1ccccc1)[C@H](NC(=O)[C@H](Cc1cccnc1)NC(=O)[C@H](N)CC(C)(C)CC)C(N)=O)[C@H](O)C(N)=O)[C@H](C)O.O=C(O)C(F)(F)F.O=C(O)C(F)(F)F.O=C(O)C(F)(F)F [Example 4, 4,4-Dimethyl-D-norleucyl-3-(pyridin-3-yl)-L-alanyl-de(1-D-leucyl-2-L-leucyl)lysobactin tristrifluoroacetate] (X1-L[dR]I[aThr]G[Asn(3S-OH)]S-X3) | – | – | – | – | – | 0.25 | 0.125 | 1 | 0.061 | –
CC[C@H](C)[C@H](NC(=O)[C@@H](CCCNC(=N)N)NC(=O)[C@H](CC(C)C)NC(=O)[C@@H](C)[C@H](O)C(C)C)C(=O)N[C@H](C(=O)NCC(=O)N[C@H](C(=O)N[C@@H](CO)C(=O)O[C@H](c1ccccc1)[C@H](NC(=O)[C@H](Cc1cccnc1)NC(=O)[C@H](N)CC(C)(C)C)C(N)=O)[C@H](O)C(N)=O)[C@H](C)O.O=C(O)C(F)(F)F.O=C(O)C(F)(F)F.O=C(O)C(F)(F)F [Example 5, 3-tert-Butyl-D-alanyl-3-(pyridin-3-yl)-L-alanyl-de(1-D-leucyl-2-L-leucyl)lysobactin tristrifluoroacetate, reference compound] (X1-L[dR]I[aThr]G[Asn(3S-OH)]S-X2) | – | – | – | – | – | 0.5 | 0.5 | 1 | 0.086 | 1
